US7875587B2, “Peptide analogues of GIP for treatment of diabetes, insulin resistance and obesity” (UUTECH Limited, priority 2004, dated 2011)
No end group written: not given here.

What was measured:
[1] = Degradation of GIP and analogues by human plasma (HPLC); format: in vitro ADME
Protocol: Degradation of GIP and Tyr^1-glucitol GIP by human plasma. […] […] The reactions were terminated by addition of 5 μl of TFA and the final volume adjusted to 1.0 ml using 0.1% v/v TFA/water. Samples were centrifuged (13,000 g, 5 minutes) and the supernatant applied to a C-18 Sep-Pak cartridge (Millipore-Waters) which was previously primed and washed with 0.1% (v/v) TFA/water. […] The volume was adjusted to 1.0 ml with 0.12% (v/v) TFA/water prior to HPLC purification.
HPLC analysis of degraded GIP and Tyr^1-glucitol GIP. […] Using 0.1% (v/v) TFA in 70% acetonitrile/H20, the concentration of acetonitrile in the eluting solvent was raised from 0% to 31.5% over 15 min, to 38.5% over 30 minutes and from 38.5% to 70% over 5 minutes, using linear gradients. The absorbance was monitored at 206 nm and peak areas evaluated using a model 2221 LKB integrator. Samples recovered manually were concentrated using a Speed-Vac concentrator.
Electrospray ionization-mass spectrometry (ESI-MS) was carried out as described in Example 2. Degradation of GIP and novel GIP analogues by DPP IV and human plasma was carried out as described in Example 2.

[2] = target: T1, human GIP receptor (Homo sapiens, UniProt P48546); test: Intracellular cyclic AMP production in GIP-receptor transfected CHL fibroblasts; format: cell-based
T1 construct: expressed in transfected cells; host or cells: Chinese hamster lung (CHL) fibroblasts, stably transfected
T1 sequence (P48546 22-466): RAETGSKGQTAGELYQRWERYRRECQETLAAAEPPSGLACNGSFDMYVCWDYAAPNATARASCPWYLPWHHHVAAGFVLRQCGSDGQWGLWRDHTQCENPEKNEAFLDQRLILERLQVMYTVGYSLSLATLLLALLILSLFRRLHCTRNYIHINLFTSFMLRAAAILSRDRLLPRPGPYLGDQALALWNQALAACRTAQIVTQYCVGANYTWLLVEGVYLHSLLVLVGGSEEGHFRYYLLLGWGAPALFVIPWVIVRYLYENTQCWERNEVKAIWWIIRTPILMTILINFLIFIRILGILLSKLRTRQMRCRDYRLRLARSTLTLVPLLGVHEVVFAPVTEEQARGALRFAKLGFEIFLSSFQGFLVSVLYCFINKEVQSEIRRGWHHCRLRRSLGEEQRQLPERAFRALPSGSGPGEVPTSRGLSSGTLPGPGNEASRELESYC
Protocol: In vitro biological activity. […] In brief, CHL cells were seeded into 12-well plates (Nünc, Roskilde, Denmark) at a density of 10^5 cells per well and allowed to grow for 48 hours before being loaded with tritiated adenine (2 μCi; TRK311; Amersham, Buckinghamshire, UK). The cells were then incubated at 37° C. for 6 hours in 1 ml DMEM supplemented with 0.5% (w/v) BSA and subsequently washed twice with HBS buffer (pH 7.4). […] The medium was subsequently removed and the cells lysed with 1 ml of 5% TCA containing 0.1 mmol/l unlabelled cyclic AMP and 0.1 mmol/l unlabelled ATP.

[3] = system: obese diabetic ob/ob mice; test: Acute in vivo effects of (Pro3)GIP in obese diabetic ob/ob mice; design: species or system mouse
Protocol: Acute in vivo effects of (Pro^3)GIP administration in obese diabetic ob/ob mice. Plasma glucose and insulin responses were evaluated using 8- to 12-week old obese diabetic ob/ob mice following intraperitoneal (i.p.) injection of native GIP, (Pro^3)GIP (25 nmol/kg body weight) or saline (0.9% (w/v) NaCl; control) immediately following the combined injection of GIP (25 nmol/kg body weight) with glucose (18 mmol/kg body weight). All test solutions were administered in a final volume of 8 ml/kg body weight. Blood samples were collected from the cut tip of the tail of conscious mice into chilled fluoride/heparin microcentrifuge tubes (Sarstedt, Numbrecht, Germany) immediately prior to injection and at 15, 30 and 60 minutes post injection. Blood samples were immediately centrifuged using a Beckman microcentrifuge (Beckman Instruments, UK) for 30 seconds at 13000 g and stored at −20° prior to glucose and insulin determinations.
Acute in vivo effects of (Pro^3)GIP on plasma glucose and insulin responses to feeding in obese diabetic ob/ob mice. Plasma glucose and insulin responses were evaluated using 8- to 12-week old ob/ob mice where food was withdrawn for an 18-hour period prior to intraperitoneal injection of saline (0.9% (w/v) NaCl; control) or (Pro^3)GIP (25 nmol/kg body weight). Following injection, the mice were allowed to re-feed for 15 minutes. Blood samples were collected from the cut tip of the tail of conscious mice into chilled fluoride/heparin microcentrifuge tubes (Sarstedt, Numbrecht, Germany) immediately prior to injection and at 15, 30, 60 and 120 minutes post injection. Blood samples were immediately centrifuged using a Beckman microcentrifuge (Beckman Instruments, UK) for 30 seconds at 13000 g and stored at −20° prior to glucose and insulin determinations.
Determination of HbA1c, plasma glucose and insulin concentrations. HbA1c was measured in whole blood by ion-exchange high-performance liquid chromatography using the Menari HA-8140 kit (BIOMEN, Berkshire, UK). Plasma glucose was assayed by an automated glucose oxidase procedure using a Beckman Glucose Analyzer II (Stevens, J. F., 1971, Clinica Chemica Acta 32:199-201) and plasma insulin was determined by RIA (Flatt, P. R. et al., 1981, Diabetologia 20:573-577). Incremental areas under plasma glucose and insulin curves (AUC) were calculated using a computer generated program (CAREA) employing the trapezoidal rule (Burington, R. S., 1973, Handbook of Mathematical Tables and Formulae, New York, McGraw Hill) with baseline subtraction.

[4] = system: BRIN-BD11 cells; test: GIP-stimulated insulin release from BRIN-BD11 cells (antagonism); format: cell-based; conditions: 5.6 mM glucose, native GIP 10^-7 M
Protocol: Tissue culture. […] Cells were maintained in sterile tissue culture flasks (Corning Glass Works, Sunderland, UK) at 37° C. in an atmosphere of 5% CO2 and 95% air using an LEEC incubator (Laboratory Technical Engineering, Nottingham, UK). Acute studies of insulin release. Insulin release from BRIN-BD11 cells was determined using cell monolayers ([…]. et al., 1996, Diabetes 45:1132-1140). Cells were harvested with the aid of trypsin/EDTA (Gibco), seeded into 24-multiwell plates (Nunc, Roskilde, Denmark) at a density of 1.0×10^5 cells per well, and allowed to attach overnight at 37° C.

[5] = human, plasma, pH 7.8, % Intact peptide remaining after incubations with human plasma
[6] = 25 nmol/kg i.p., 15 min re-feeding after 18 h fast

Compound: CC[C@H](C)[C@H](NC(=O)[C@H](CO)NC(=O)[C@H](Cc1ccc(O)cc1)NC(=O)[C@H](CC(=O)O)NC(=O)[C@H](CO)NC(=O)[C@@H](NC(=O)[C@H](Cc1ccccc1)NC(=O)[C@@H](NC(=O)CNC(=O)[C@H](CCC(=O)O)NC(=O)[C@H](C)NC(=O)[C@@H](N)Cc1ccc(O)cc1)[C@@H](C)O)[C@@H](C)CC)C(=O)N[C@@H](C)C(=O)N[C@@H](CCSC)C(=O)N[C@@H](CC(=O)O)C(=O)N[C@@H](CCCCN)C(=O)N[C@H](C(=O)N[C@@H](Cc1c[nH]cn1)C(=O)N[C@@H](CCC(N)=O)C(=O)N[C@@H](CCC(N)=O)C(=O)N[C@@H](CC(=O)O)C(=O)N[C@@H](Cc1ccccc1)C(=O)N[C@H](C(=O)N[C@@H](CC(N)=O)C(=O)N[C@@H](Cc1c[nH]c2ccccc12)C(=O)N[C@@H](CC(C)C)C(=O)N[C@@H](CC(C)C)C(=O)N[C@@H](C)C(=O)N[C@@H](CCC(N)=O)C(=O)N[C@@H](CCCCN)C(=O)NCC(=O)N[C@@H](CCCCN)C(=O)N[C@@H](CCCCN)C(=O)N[C@@H](CC(N)=O)C(=O)N[C@@H](CC(=O)O)C(=O)N[C@@H](Cc1c[nH]c2ccccc12)C(=O)N[C@@H](CCCCN)C(=O)N[C@@H](Cc1c[nH]cn1)C(=O)N[C@@H](CC(N)=O)C(=O)N[C@H](C(=O)N[C@H](C(=O)N[C@@H](CCC(N)=O)C(=O)O)[C@@H](C)O)[C@@H](C)CC)C(C)C)[C@@H](C)CC [GIP 1–42, reference compound]
- degradation by human plasma [1]: readily metabolised
- plasma degradation [1]: rapidly degraded
- % Intact peptide remaining after incubations with human plasma ([1]; human, plasma, 0 h): 100%
- remaining at 2 h, 20 µg/ml [1, 5]: 52 ± 1%
- remaining at 4 h, 20 µg/ml [1, 5]: 23 ± 1%
- remaining at 8 h, 20 µg/ml [1, 5]: 0%

Compound: CCCCCCCCCCCCCCCC(=O)NCCCC[C@H](NC(=O)[C@H](Cc1c[nH]c2ccccc12)NC(=O)[C@H](CC(=O)O)NC(=O)[C@H](CC(N)=O)NC(=O)[C@H](CCCCN)NC(=O)[C@H](CCCCN)NC(=O)CNC(=O)[C@H](CCCCN)NC(=O)[C@H](CCC(N)=O)NC(=O)[C@H](C)NC(=O)[C@H](CC(C)C)NC(=O)[C@H](CC(C)C)NC(=O)[C@H](Cc1c[nH]c2ccccc12)NC(=O)[C@H](CC(N)=O)NC(=O)[C@@H](NC(=O)[C@H](Cc1ccccc1)NC(=O)[C@H](CC(=O)O)NC(=O)[C@H](CCC(N)=O)NC(=O)[C@H](CCC(N)=O)NC(=O)[C@H](Cc1c[nH]cn1)NC(=O)[C@@H](NC(=O)[C@H](CCCCN)NC(=O)[C@H](CC(=O)O)NC(=O)[C@H](CCSC)NC(=O)[C@H](C)NC(=O)[C@@H](NC(=O)[C@H](CO)NC(=O)[C@H](Cc1ccc(O)cc1)NC(=O)[C@H](CC(=O)O)NC(=O)[C@H](CO)NC(=O)[C@@H](NC(=O)[C@H](Cc1ccccc1)NC(=O)[C@@H](NC(=O)CNC(=O)[C@H](CCC(=O)O)NC(=O)[C@H](C)NC(=O)[C@H](Cc1ccc(O)cc1)NC(C)=O)[C@@H](C)O)[C@@H](C)CC)[C@@H](C)CC)[C@@H](C)CC)C(C)C)C(=O)N[C@@H](Cc1c[nH]cn1)C(=O)N[C@@H](CC(N)=O)C(=O)N[C@H](C(=O)N[C@H](C(=O)N[C@@H](CCC(N)=O)C(=O)O)[C@@H](C)O)[C@@H](C)CC [N-AcGIP(LysPAL^37)]
- EC50 [2]: 13 nM

Compound: YAPGTFISDYSIAMDKIHQQDFVNWLLAQKGKKNDWKHNITQ [(Pro^3)GIP]
- antagonism of insulin-releasing action of GIP and improvement of glucose tolerance ([3]; 25 nmol/kg i.p. with GIP 25 nmol/kg and glucose 18 mmol/kg): completely antagonised
- glycemic excursion compared with glucose alone ([3]; 25 nmol/kg i.p. with GIP and glucose): worse than when glucose was administered alone
- glycemic excursion after feeding [3, 6]: worsened
- insulin response to feeding [3, 6]: decreased
- inhibition of GIP-stimulated insulin secretion [4]: inhibited in dose-dependent fashion
